Legend:
Type in all cases: in vivo
[1] = system: Stellaria media, Lolium multiflorum, Amaranthus retroflexus, Sinapis alba, Avena sativa and Settaria viridis; assay: Pre-emergence effect on weeds (greenhouse pot test); conditions: application rate of 1 kg or less of active substance per hectare; visually scored after 3 to 4 weeks by comparison with untreated controls
Description: Seeds or rhizome pieces of mono and dicotyledonous weed plants are placed in sandy loam soil in plastic pots and covered with soil. The compounds according to the invention which are formulated in the form of wettable powders or emulsion concentrates are then applied to the soil cover in the form of aqueous suspensions or emulsions at an application rate of 600 to 800 l of water/ha (converted), in various dosages.

[2] = system: Sinapis alba, Echinochloa crus-galli, Lolium multiforum, Stellaria media, Cyperus iria, Amaranthus retroflexus, Settaria viridis and Avena sativa; assay: Post-emergence effect on weeds (greenhouse pot test); conditions: application rate of 1 kg or less of active substance per hectare; treated at the three-leaf stage; scored visually after about 3 to 4 weeks vs untreated controls
Method: Seeds or rhizome pieces of mono- and dicotyledonous weeds are placed in sandy loam soil in plastic pots, covered with soil and grown in a greenhouse under good growth conditions. Three weeks after sowing, the test plants are treated at the three-leaf stage. The compounds according to the invention, formulated as wettable powders or emulsion concentrates, are sprayed, at various dosages, onto the green parts of the plants at an application rate of 600 to 800 l of water/ha (converted). After the test plants had remained in the greenhouse for about 3 to 4 weeks under optimum growth conditions, the effect of the preparations is scored visually by comparison with untreated controls. The agents according to the invention also have good herbicidal activity post-emergence against a broad spectrum of economically important weed grasses and broad-leaved weeds.

[3] = system: Cyperus monti, Echinochloa crus-galli and Sagitaria pygmaea; assay: Action on harmful plants in rice (paddy rice conditions); conditions: poured into the dammed water, visual scoring about three weeks after application; further: test concentration or dose not given here
Description: Transplanted and sown rice and also typical rice weeds (gramineous and broad-leaved) are cultivated in closed plastic pots in a greenhouse to the three-leaf stage (Echinochloa crus-galli 1.5-leaf) under paddy rice conditions (height of water: 2-3 cm). This is followed by treatment with the compounds according to the invention. For this purpose, the formulated active compounds are suspended, dissolved or emulsified in water and applied by pouring them into the dammed water around the test plants in different dosages.

SMILES: CC(C)(F)c1nc(N)nc(NC(CCc2ccccc2)CC2CC2(F)F)n1 (mixture of isomers) [Example 1-157]
- herbicidal activity pre-emergence against harmful plants [1]: very good herbicidal activity
- herbicidal activity post-emergence against harmful plants [2]: very good herbicidal activity
- herbicidal activity against harmful plants which are typical for rice crops [3]: very good herbicidal activity

SMILES: CC(C)c1nc(N)nc(NC(CCc2ccccc2)CC2CC2(F)F)n1 (mixture of isomers) [Example 1-158]
- herbicidal activity pre-emergence against harmful plants [1]: very good herbicidal activity
- herbicidal activity post-emergence against harmful plants [2]: very good herbicidal activity
- herbicidal activity against harmful plants which are typical for rice crops [3]: very good herbicidal activity

SMILES: CC(C)(F)c1nc(N)nc(NC(CCc2cccc(F)c2)C2CC2(Cl)Cl)n1 (mixture of isomers) [Example 2-6]
- herbicidal activity post-emergence against harmful plants [2]: very good herbicidal activity

SMILES: CC(C)(F)c1nc(N)nc(NC(CCc2ccccc2)CC2CC2(F)F)n1 (mixture of isomers) [Example 2-157]
- herbicidal activity pre-emergence against harmful plants [1]: very good herbicidal activity
- herbicidal activity post-emergence against harmful plants [2]: very good herbicidal activity
- herbicidal activity against harmful plants which are typical for rice crops [3]: very good herbicidal activity

SMILES: CC(C)c1nc(N)nc(NC(CCc2ccccc2)CC2CC2(F)F)n1 (mixture of isomers) [Example 2-158]
- herbicidal activity pre-emergence against harmful plants [1]: very good herbicidal activity
- herbicidal activity post-emergence against harmful plants [2]: very good herbicidal activity
- herbicidal activity against harmful plants which are typical for rice crops [3]: very good herbicidal activity

SMILES: CC(F)c1nc(N)nc(NC(CCCc2ccccc2)C2CC2)n1 (mixture of isomers) [Example 3-3]
- herbicidal activity pre-emergence against harmful plants [1]: very good herbicidal activity
- herbicidal activity post-emergence against harmful plants [2]: very good herbicidal activity
- herbicidal activity against harmful plants which are typical for rice crops [3]: very good herbicidal activity

SMILES: CC(F)c1nc(N)nc(NC(CCCc2ccccc2)C2CC2)n1 (mixture of isomers) [Example 4-3]
- herbicidal activity pre-emergence against harmful plants [1]: very good herbicidal activity
- herbicidal activity post-emergence against harmful plants [2]: very good herbicidal activity
- herbicidal activity against harmful plants which are typical for rice crops [3]: very good herbicidal activity

SMILES: CC(C)c1nc(N)nc(N[C@@H](CCc2ccccc2)C2CCC2)n1 [Example 1-14]
- herbicidal activity pre-emergence against harmful plants [1]: very good herbicidal activity
- herbicidal activity post-emergence against harmful plants [2]: very good herbicidal activity
- herbicidal activity against harmful plants which are typical for rice crops [3]: very good herbicidal activity

SMILES: CC(C)(F)c1nc(N)nc(N[C@@H](CCc2ccccc2)C2CCC2)n1 [Example 1-15]
- herbicidal activity pre-emergence against harmful plants [1]: very good herbicidal activity
- herbicidal activity post-emergence against harmful plants [2]: very good herbicidal activity
- herbicidal activity against harmful plants which are typical for rice crops [3]: very good herbicidal activity

SMILES: Cc1nc(N)nc(N[C@@H](CCc2ccccc2)C2CCC2)n1 [Example 1-16]
- herbicidal activity pre-emergence against harmful plants [1]: very good herbicidal activity
- herbicidal activity post-emergence against harmful plants [2]: very good herbicidal activity
- herbicidal activity against harmful plants which are typical for rice crops [3]: very good herbicidal activity

SMILES: CC(C)c1nc(N)nc(N[C@@H](CCc2cccc(Cl)c2)C2CCC2)n1 [Example 1-23]
- herbicidal activity pre-emergence against harmful plants [1]: very good herbicidal activity
- herbicidal activity post-emergence against harmful plants [2]: very good herbicidal activity
- herbicidal activity against harmful plants which are typical for rice crops [3]: very good herbicidal activity

SMILES: CC(C)(F)c1nc(N)nc(N[C@@H](CCc2cccc(Cl)c2)C2CCC2)n1 [Example 1-24]
- herbicidal activity pre-emergence against harmful plants [1]: very good herbicidal activity
- herbicidal activity post-emergence against harmful plants [2]: very good herbicidal activity
- herbicidal activity against harmful plants which are typical for rice crops [3]: very good herbicidal activity

SMILES: Cc1cccc(CC[C@H](Nc2nc(N)nc(C(C)C)n2)C2CCC2)c1 [Example 1-27]
- herbicidal activity pre-emergence against harmful plants [1]: very good herbicidal activity
- herbicidal activity post-emergence against harmful plants [2]: very good herbicidal activity
- herbicidal activity against harmful plants which are typical for rice crops [3]: very good herbicidal activity

SMILES: Cc1cccc(CC[C@H](Nc2nc(N)nc(C(C)(C)F)n2)C2CCC2)c1 [Example 1-28]
- herbicidal activity pre-emergence against harmful plants [1]: very good herbicidal activity
- herbicidal activity post-emergence against harmful plants [2]: very good herbicidal activity
- herbicidal activity against harmful plants which are typical for rice crops [3]: very good herbicidal activity

SMILES: CC(C)c1nc(N)nc(N[C@@H](CCc2ccccc2)CC2CC2)n1 [Example 1-144]
- herbicidal activity pre-emergence against harmful plants [1]: very good herbicidal activity
- herbicidal activity post-emergence against harmful plants [2]: very good herbicidal activity
- herbicidal activity against harmful plants which are typical for rice crops [3]: very good herbicidal activity

SMILES: CC(C)(F)c1nc(N)nc(N[C@@H](CCc2ccccc2)CC2CC2)n1 [Example 1-145]
- herbicidal activity pre-emergence against harmful plants [1]: very good herbicidal activity
- herbicidal activity post-emergence against harmful plants [2]: very good herbicidal activity
- herbicidal activity against harmful plants which are typical for rice crops [3]: very good herbicidal activity

SMILES: CC(C)c1nc(N)nc(N[C@H](CCc2ccccc2)C2CCC2)n1 [Example 2-14]
- herbicidal activity pre-emergence against harmful plants [1]: very good herbicidal activity
- herbicidal activity post-emergence against harmful plants [2]: very good herbicidal activity
- herbicidal activity against harmful plants which are typical for rice crops [3]: very good herbicidal activity

SMILES: CC(C)(F)c1nc(N)nc(N[C@H](CCc2ccccc2)C2CCC2)n1 [Example 2-15, 2-Amino-4-(1-fluoro-1-methylethyl)-6-[(1 R)-3-phenyl-1-cyclobutyl-1-propylamino]-1,3,5-triazine]
- herbicidal activity pre-emergence against harmful plants [1]: very good herbicidal activity
- herbicidal activity post-emergence against harmful plants [2]: very good herbicidal activity
- herbicidal activity against harmful plants which are typical for rice crops [3]: very good herbicidal activity

SMILES: Cc1nc(N)nc(N[C@H](CCc2ccccc2)C2CCC2)n1 [Example 2-16]
- herbicidal activity pre-emergence against harmful plants [1]: very good herbicidal activity
- herbicidal activity against harmful plants which are typical for rice crops [3]: very good herbicidal activity

SMILES: CC(C)c1nc(N)nc(N[C@H](CCc2cccc(Cl)c2)C2CCC2)n1 [Example 2-23]
- herbicidal activity pre-emergence against harmful plants [1]: very good herbicidal activity
- herbicidal activity post-emergence against harmful plants [2]: very good herbicidal activity
- herbicidal activity against harmful plants which are typical for rice crops [3]: very good herbicidal activity

SMILES: CC(C)(F)c1nc(N)nc(N[C@H](CCc2cccc(Cl)c2)C2CCC2)n1 [Example 2-24]
- herbicidal activity pre-emergence against harmful plants [1]: very good herbicidal activity
- herbicidal activity post-emergence against harmful plants [2]: very good herbicidal activity
- herbicidal activity against harmful plants which are typical for rice crops [3]: very good herbicidal activity

SMILES: Cc1cccc(CC[C@@H](Nc2nc(N)nc(C(C)C)n2)C2CCC2)c1 [Example 2-27]
- herbicidal activity pre-emergence against harmful plants [1]: very good herbicidal activity
- herbicidal activity post-emergence against harmful plants [2]: very good herbicidal activity
- herbicidal activity against harmful plants which are typical for rice crops [3]: very good herbicidal activity

SMILES: Cc1cccc(CC[C@@H](Nc2nc(N)nc(C(C)(C)F)n2)C2CCC2)c1 [Example 2-28]
- herbicidal activity pre-emergence against harmful plants [1]: very good herbicidal activity
- herbicidal activity post-emergence against harmful plants [2]: very good herbicidal activity
- herbicidal activity against harmful plants which are typical for rice crops [3]: very good herbicidal activity

SMILES: CC(C)c1nc(N)nc(N[C@H](CCc2ccccc2)CC2CC2)n1 [Example 2-144]
- herbicidal activity pre-emergence against harmful plants [1]: very good herbicidal activity
- herbicidal activity post-emergence against harmful plants [2]: very good herbicidal activity
- herbicidal activity against harmful plants which are typical for rice crops [3]: very good herbicidal activity

SMILES: CC(C)(F)c1nc(N)nc(N[C@H](CCc2ccccc2)CC2CC2)n1 [Example 2-145]
- herbicidal activity pre-emergence against harmful plants [1]: very good herbicidal activity
- herbicidal activity post-emergence against harmful plants [2]: very good herbicidal activity
- herbicidal activity against harmful plants which are typical for rice crops [3]: very good herbicidal activity

SMILES: Nc1nc(N[C@@H](CCCc2ccc(Cl)cc2Cl)C2CC2)nc(C(F)(F)F)n1 [Example 3-6]
- herbicidal activity pre-emergence against harmful plants [1]: very good herbicidal activity
- herbicidal activity post-emergence against harmful plants [2]: very good herbicidal activity
- herbicidal activity against harmful plants which are typical for rice crops [3]: very good herbicidal activity

SMILES: Cc1nc(N)nc(N[C@@H](CCCc2ccccc2)C2CC2)n1 [Example 3-8]
- herbicidal activity pre-emergence against harmful plants [1]: very good herbicidal activity
- herbicidal activity post-emergence against harmful plants [2]: very good herbicidal activity
- herbicidal activity against harmful plants which are typical for rice crops [3]: very good herbicidal activity

SMILES: CCc1nc(N)nc(N[C@@H](CCCc2ccccc2)C2CC2)n1 [Example 3-9]
- herbicidal activity pre-emergence against harmful plants [1]: very good herbicidal activity
- herbicidal activity post-emergence against harmful plants [2]: very good herbicidal activity
- herbicidal activity against harmful plants which are typical for rice crops [3]: very good herbicidal activity
